biological target: T1, human factor Xa (Homo sapiens, UniProt P00742); assay: Factor Xa assay (chromogenic, purified enzyme); type: biochemical; details: inhibition constant for factor Xa; chromogenic substrate S-2765 140 μM, enzyme 0.5 nM, 25° C., pH 7.8; Ki calculated from IC50 (Ki=IC50/{1+(substrate concentration/Km)}); read-out: Ki(FXa)
T1 construct: 25 μl human factor Xa (Enzyme Research Laboratories, Inc; South Bend, Ind.) in TBS-PEG; purchased Enzyme Research Laboratories, Inc; South Bend, Ind
Description: The ability of the compounds of the formula I to inhibit factor Xa or factor VIIa or other enzymes like thrombin, plasmin, or trypsin can be assessed by determining the concentration of the compound of the formula I that inhibits enzyme activity by 50%, i. e. the IC50 value, which was related to the inhibition constant Ki. Purified enzymes were used in chromogenic assays. The concentration of inhibitor that causes a 50% decrease in the rate of substrate hydrolysis was determined by linear regression after plotting the relative rates of hydrolysis (compared to the uninhibited control) versus the log of the concentration of the compound of formula I. For calculating the inhibition constant Ki, the IC50 value was corrected for competition with substrate using the formula Ki=IC50/{1+(substrate concentration/Km)} wherein Km is the Michaelis-Menten constant (Chen and Prusoff, Biochem. Pharmacol. 22 (1973), 3099-3108; I. H. Segal, Enzyme Kinetics, 1975, John Wiley & Sons, New York, 100-125; which were incorporated herein by reference). a) Factor Xa Assay
In the assay for determining the inhibition of factor Xa activity TBS-PEG buffer (50 mM Tris-HCl, pH 7.8, 200 mM NaCl, 0.05% (w/v) PEG-8000, 0.02% (w/v) NaN3) was used. The IC50 was determined by combining in appropriate wells of a Costar half-area microtiter plate 25 μl human factor Xa (Enzyme Research Laboratories, Inc.; South Bend, Ind.) in TBS-PEG; 40 μl 10% (v/v) DMSO in TBS-PEG (uninhibited control) or various concentrations of the compound to be tested diluted in 10% (v/v) DMSO in TBS-PEG; and substrate S-2765 (N(α)-benzyloxycarbonyl-D-Arg-Gly-L-Arg-p-nitroanilide; Kabi Pharmacia, Inc.; Franklin, Ohio) in TBS-PEG.
The assay was performed by pre-incubating the compound of formula I plus enzyme for 10 min. Then the assay was initiated by adding substrate to obtain a final volume of 100 μl. The initial velocity of chromogenic substrate hydrolysis was measured by the change in absorbance at 405 nm using a Bio-tek Instruments kinetic plate reader (Ceres UV900HDi) at 25° C. during the linear portion of the time course (usually 1.5 min after addition of substrate). The enzyme concentration was 0.5 nM and substrate concentration was 140 μM.

T1 sequence (P00742 235-488 limits assumed): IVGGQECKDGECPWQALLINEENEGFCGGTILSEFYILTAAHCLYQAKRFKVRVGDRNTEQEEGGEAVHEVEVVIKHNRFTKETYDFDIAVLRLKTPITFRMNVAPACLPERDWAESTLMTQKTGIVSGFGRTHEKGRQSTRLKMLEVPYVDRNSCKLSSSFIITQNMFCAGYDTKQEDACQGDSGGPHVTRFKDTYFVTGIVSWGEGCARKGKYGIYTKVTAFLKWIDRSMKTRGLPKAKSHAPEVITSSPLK
T1 sequence (P00742 41-179 partner limits assumed): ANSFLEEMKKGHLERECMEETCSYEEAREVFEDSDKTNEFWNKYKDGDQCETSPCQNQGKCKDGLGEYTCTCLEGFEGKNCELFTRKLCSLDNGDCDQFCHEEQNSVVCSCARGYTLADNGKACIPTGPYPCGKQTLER

Row | Ki [nM] | SMILES
1 | 65 | CC(C)N1CCC(NC(=O)c2cncn2Cc2cc(-c3ccc(Cl)s3)on2)CC1 [Example 1, 3-[5-(5-Chloro-thiophen-2-yl)-isoxazol-3-ylmethyl]-3H-imidazole-4-carboxylic acid (1-isopropyl-piperidin-4-yl)-amide]
2 | 27 | CCc1nc(C)c(C(=O)NC2CCN(C(C)C)CC2)n1Cc1cc(-c2ccc(Cl)s2)on1 [Example 5, 3-[5-(5-Chloro-thiophen-2-yl)-isoxazol-3-ylmethyl]-2-ethyl-5-methyl-3H-imidazole-4-carboxylic acid (1-isopropyl-piperidin-4-yl)-amide]
3 | 530 | CCc1nc(C(=O)NC2CCN(C(C)C)CC2)c(C)n1Cc1cc(-c2ccc(Cl)s2)on1 [Example 6, 1-[5-(5-Chloro-thiophen-2-yl)-isoxazol-3-ylmethyl]-2-ethyl-5-methyl-1H-imidazole-4-carboxylic acid (1-isopropyl-piperidin-4-yl)-amide]
4 | 1 | Cc1nc(I)n(Cc2cc(-c3ccc(Cl)s3)on2)c1C(=O)NC1CCN(C(C)C)CC1 [Example 7, 3-[5-(5-Chloro-thiophen-2-yl)-isoxazol-3-ylmethyl]-2-iodo-5-methyl-3H-imidazole-4-carboxylic acid (1-isopropyl-piperidin-4-yl)-amide]
5 | 86 | COCc1ncc(C(=O)NC2CCN(C(C)C)CC2)n1Cc1cc(-c2ccc(Cl)s2)on1 [Example 9, 3-[5-(5-Chloro-thiophen-2-yl)-isoxazol-3-ylmethyl]-2-methoxymethyl-3H-imidazole-4-carboxylic acid (1-isopropyl-piperidin-4-yl)-amide]
6 | 401 | COCCc1ncc(C(=O)NC2CCN(C(C)C)CC2)n1Cc1cc(-c2ccc(Cl)s2)on1 [Example 14, 3-[5-(5-Chloro-thiophen-2-yl)-isoxazol-3-ylmethyl]-2-(2-methoxy-ethyl)-3H-imidazole-4-carboxylic acid (1-isopropyl-piperidin-4-yl)-amide]
7 | 254 | CC(C)c1ncc(C(=O)NC2CCN(C(C)C)CC2)n1Cc1cc(-c2ccc(Cl)s2)on1 [Example 16, 3-[5-(5-Chloro-thiophen-2-yl)-isoxazol-3-ylmethyl]-2-isopropyl-3H-imidazole-4-carboxylic acid (1-isopropyl-piperidin-4-yl)-amide]
8 | 6 | CCS(=O)(=O)c1ncc(C(=O)NC2CCN(C(C)C)CC2)n1Cc1cc(-c2ccc(Cl)s2)on1 [Example 23, 3-[5-(5-Chloro-thiophen-2-yl)-isoxazol-3-ylmethyl]-2-ethanesulfonyl-3H-imidazole-4-carboxylic acid (1-isopropyl-piperidin-4-yl)-amide]
9 | 22 | Cc1nc(C(N)=O)n(Cc2cc(-c3ccc(Cl)s3)on2)c1C(=O)NC1CCN(C(C)C)CC1 [Example 24, 3-[5-(5-Chloro-thiophen-2-yl)-isoxazol-3-ylmethyl]-5-methyl-3H-imidazole-2,4-dicarboxylic acid 2-amide 4-[(1-isopropyl-piperidin-4-yl)-amide]]
10 | 3 | Cc1nc(Br)n(Cc2cc(-c3ccc(Cl)s3)on2)c1C(=O)NC1CCN(C(C)C)CC1 [Example 26, 2-Bromo-3-[5-(5-chloro-thiophen-2-yl)-isoxazol-3-ylmethyl]-5-methyl-3H-imidazole-4-carboxylic acid (1-isopropyl-piperidin-4-yl)-amide]
11 | 8 | CCOC(=O)c1ncc(C(=O)NC2CCN(C(C)C)CC2)n1Cc1cc(-c2ccc(Cl)s2)on1 [Example 37, 1-[5-(5-Chloro-thiophen-2-yl)-isoxazol-3-ylmethyl]-5-(1-isopropyl-piperidin-4-ylcarbamoyl)-1H-imidazole-2-carboxylic acid ethyl ester]
12 | 174 | CC(C)N1CCC(NC(=O)c2nc(C(=O)OC(C)(C)C)cn2Cc2cc(-c3ccc(Cl)s3)on2)CC1 [Example 38, 1-[5-(5-Chloro-thiophen-2-yl)-isoxazol-3-ylmethyl]-2-(1-isopropyl-piperidin-4-ylcarbamoyl)-1H-imidazole-4-carboxylic acid tert-butyl ester]
13 | 117 | CC(C)N1CCC(NC(=O)c2nc(C(=O)O)cn2Cc2cc(-c3ccc(Cl)s3)on2)CC1 [Example 39, 1-[5-(5-Chloro-thiophen-2-yl)-isoxazol-3-ylmethyl]-2-(1-isopropyl-piperidin-4-ylcarbamoyl)-1H-imidazole-4-carboxylic acid]
14 | 20 | COC(=O)c1cn(Cc2cc(-c3ccc(Cl)s3)on2)c(C(=O)NC2CCN(C(C)C)CC2)n1 [Example 40, 1-[5-(5-Chloro-thiophen-2-yl)-isoxazol-3-ylmethyl]-2-(1-isopropyl-piperidin-4-ylcarbamoyl)-1H-imidazole-4-carboxylic acid methyl ester]

Further lines, the compound ahead of its results:

Row | SMILES | Ki [nM]
15 | CC(C)N1CCC(NC(=O)c2c(Cl)nc(-c3ccccc3)n2Cc2cc(-c3ccc(Cl)s3)on2)CC1 [Example 3, 5-Chloro-3-[5-(5-chloro-thiophen-2-yl)-isoxazol-3-ylmethyl]-2-phenyl-3H-imidazole-4-carboxylic acid (1-isopropyl-piperidin-4-yl)-amide] | 7
16 | CC(C)N1CCC(NC(=O)c2cnc(C3CC3)n2Cc2cc(-c3ccc(Cl)s3)on2)CC1 [Example 11, 3-[5-(5-Chloro-thiophen-2-yl)-isoxazol-3-ylmethyl]-2-cyclopropyl-3H-imidazole-4-carboxylic acid (1-isopropyl-piperidin-4-yl)-amide] | 4
17 | CC(C)N1CCC(NC(=O)c2cnc(-c3c(F)cccc3F)n2Cc2cc(-c3ccc(Cl)s3)on2)CC1 [Example 12, 3-[5-(5-Chloro-thiophen-2-yl)-isoxazol-3-ylmethyl]-2-(2,6-difluoro-phenyl)-3H-imidazole-4-carboxylic acid (1-isopropyl-piperidin-4-yl)-amide] | 18
18 | CC(C)N1CCC(NC(=O)c2cnc(-c3c(Cl)cccc3Cl)n2Cc2cc(-c3ccc(Cl)s3)on2)CC1 [Example 15, 3-[5-(5-Chloro-thiophen-2-yl)-isoxazol-3-ylmethyl]-2-(2,6-dichloro-phenyl)-3H-imidazole-4-carboxylic acid (1-isopropyl-piperidin-4-yl)-amide] | 56
19 | CC(C)N1CCC(NC(=O)c2cnc(-c3ccccn3)n2Cc2cc(-c3ccc(Cl)s3)on2)CC1 [Example 17, 3-[5-(5-Chloro-thiophen-2-yl)-isoxazol-3-ylmethyl]-2-pyridin-2-yl-3H-imidazole-4-carboxylic acid (1-isopropyl-piperidin-4-yl)-amide] | 112
20 | Cc1nc(-c2ccccc2)n(Cc2cc(-c3ccc(Cl)s3)on2)c1C(=O)NC1CCN(C(C)C)CC1 [Example 18, 3-[5-(5-Chloro-thiophen-2-yl)-isoxazol-3-ylmethyl]-5-methyl-2-phenyl-3H-imidazole-4-carboxylic acid (1-isopropyl-piperidin-4-yl)-amide] | 7
21 | CC(C)N1CCC(NC(=O)c2cnc(-c3cccnc3)n2Cc2cc(-c3ccc(Cl)s3)on2)CC1 [Example 20, 3-[5-(5-Chloro-thiophen-2-yl)-isoxazol-3-ylmethyl]-2-pyridin-3-yl-3H-imidazole-4-carboxylic acid (1-isopropyl-piperidin-4-yl)-amide] | 358
22 | Cc1nc(-c2ncc(C(=O)NC3CCN(C(C)C)CC3)n2Cc2cc(-c3ccc(Cl)s3)on2)cs1 [Example 21, 3-[5-(5-Chloro-thiophen-2-yl)-isoxazol-3-ylmethyl]-2-(2-methyl-thiazol-4-yl)-3H-imidazole-4-carboxylic acid (1-isopropyl-piperidin-4-yl)-amide] | 243
23 | CC(C)N1CCC(NC(=O)c2cncn2CC(=O)Nc2ccc(Cl)cn2)CC1 [Example 29, 3-[(5-Chloro-pyridin-2-ylcarbamoyl)-methyl]-3H-imidazole-4-carboxylic acid (1-isopropyl-piperidin-4-yl)-amide] | 140
24 | COCc1ncc(C(=O)NC2CCN(C(C)C)CC2)n1CC(=O)Nc1ccc(Cl)cc1 [Example 30, 3-[(4-Chloro-phenylcarbamoyl)-methyl]-2-methoxymethyl-3H-imidazole-4-carboxylic acid (1-isopropyl-piperidin-4-yl)-amide] | 35
25 | CC(C)N1CCC(NC(=O)c2c(Cl)nc(-c3ccccc3)n2CC(=O)Nc2ccc(Cl)cn2)CC1 [Example 33, 5-Chloro-3-[(5-chloro-pyridin-2-ylcarbamoyl)-methyl]-2-phenyl-3H-imidazole-4-carboxylic acid (1-isopropyl-piperidin-4-yl)-amide] | 103

Source: US7358268B2, “Imidazole derivatives as factor Xa inhibitors” (Sanofi-Aventis Deutschland GmbH, priority 2002, dated 2008)
